From patent US12129490B2, “Methods for generating hepatocytes and cholangiocytes from pluripotent stem cells” (UNIVERSITY HEALTH NETWORK, priority 2018, dated 2024)
Values belong to the molecule of their own block, whether it stands above or below them.

Tests used:
CFTR = biological target: T1, CFTR (Homo sapiens, UniProt P13569); experiment: Forskolin-induced swelling assay on hPSC-derived cystic structures; type: cell-based; conditions: hPSC-derived cysts
T1 construct: hPSC-derived cyst structures generated in 3D gels contain functional CFTR protein; endogenous in cells; host or cells: cysts from H9 hESC- and Y2-1 iPSC-derived cholangiocytes
From the text: F/I stimulated cyst swelling was quantified using velocity imaging software. The total size of the cysts is normalized to that prior to F/I stimulation. Values are from three individual experiments.
With this assay, activation of the cAMP pathway by the addition of Forskolin/IBMX increases CFTR function resulting in fluid transport and swelling of the cyst. Swelling can be visualized following staining with calcein green, a cell-permeable fluorescent dye (FIG. 18a).

[1] = test system: iPSC-derived cholangiocytes; experiment: Cyst formation in 3D gel culture of iPSC-derived cholangiocytes; type: cell-based, human; conditions: normal iPSC-derived cholangiocytes
From the text: After embedding in collagen/Matrigel culture, cyst formation was induced from the aggregates by the addition of forskolin for the first week of the two-week culture period (left). Without forskolin stimulation, the CF-iPSCs derived cholangiocytes formed branched ductal structure rather than hollow cysts (right).
CF-iPSCs derived cholangiocytes were maintained in the 3D gel conditions in the presence or absence of forskolin for the first week of the two weeks culture period (left graph). Normal iPS cells-derived cholangiocytes were maintained in the presence or absence of CFTR inhibitor for the first week of the two-week culture periods (right graph). […] Addition of the CFTR inhibitor to normal iPSC-derived cholangiocytes delayed cyst formation (right graph).
Both hiPSC lines generated hepatoblast populations with kinetics similar to those observed for wild type hPSCs (FIG. 24a, b). […] However, many of the cysts that developed from the patient iPSC we not completely hollow, but rather contained branched ductal structures (FIG. 19c).

[2] = test system: hESC-derived embryoid bodies; experiment: Endoderm induction in hESC-derived embryoid bodies, flow cytometry; type: cell-based, human; conditions: day six EBs
Procedure: Similar to protocols using monolayer cultures^16, it involves specific steps that recapitulate the critical stages of liver development in the early embryo. EBs are formed from small aggregates by culture for 24 hours in low levels of BMP4, as previously described^18. The EBs are subsequently exposed to high concentrations of activin A (hereafter referred to as activin) for five days to induce definitive endoderm, a population defined by expression of the surface markers CXCR4, CKIT and EPCAM and the transcription factors SOX17 and FOXA2.
Addition of Wnt3A to the activin-induced EB cultures led to reproducible increases in the proportion of CXCR4^+, SOX17^+ and FOXA2^+ cells within the EBs (FIG. 1c). With the increase in CXCR4 expression, the proportion of CKIT^+CXCR4^+ and CXCR4^+EPCAM^+ cells increased to greater than 95% of the population. […] Endoderm induction in the EBs was influenced by the base culture media used. StemPro34 supported more efficient endoderm induction than neural basal media that we used previously (FIG. 1f). The induction of highly enriched endoderm is an important first step in the efficient and reproducible generation of hepatocyte-like cells from hPSCs.
(§1) Media was changed every 3 days.
Flow cytometric analyses were performed as described previously^45. […] Stained cells were analyzed using an LSRII flow cytometer (BD).

[3] = test system: day six EB-derived monolayer cells; experiment: Extended activin treatment of EB-derived monolayer cells, flow cytometry; type: cell-based, human
Procedure: FIG. 3A is an intracellular flow cytometric analysis showing the proportion of SOX17^+ and FOXA2^+ cells in day six activin/Wnt3A-induced EBs as well as in monolayer populations derived from them. The monolayer populations were cultured either directly in the specification media (−activin) or for two days in activin (50 ng/ml) and then in the specification media (+activin). Populations were analyzed following two or four days culture in the specification media (total days eight and 10 for the −activin group and days 10 and 12 for the +activin group). Bars represent standard deviation (SD) of the mean of three independent experiments.
FIG. 3E is a flow cytometric analysis showing the proportion of CD31^+ CD90^+ and EPCAM^+ cells in monolayer populations derived from activin treated (day 26) and non-treated (day 24) endoderm. […] In contrast, a higher portion of EPCAM^+ cells was detected in the population derived from the activin-treated endoderm compared to the population generated from the non-treated cells (EPCAM: 90.7+/−2.7% vs 56.8+/−7.3%; P<0.01, n=3).
It was not known if prolonged signaling would be useful with human PSC. The effect of increasing the duration of this signaling pathway was extended in the human system by culturing the monolayer cells for two days in activin prior to the FGF/BMP4 specification step. […] Without being bound by theory, since the total cell number was lower in the treated population (FIG. 3b) it is possible that activin signaling at this stage preferentially supports the survival of endodermal cells.
as §1
Flow cytometric analyses were performed as described previously^45. For cell surface markers, staining was carried out in PBS with 10% FCS. For intracellular proteins, staining was performed on cells fixed with 4% paraformaldehyde (Electron Microscopy Science, Hatfield, PA, USA) in PBS. Cells were permeabilized with 90% ice-cold methanol for 20 minutes for Sox17 and FoxA2 staining as previously described^45. Albumin and alpha-fetoprotein staining was performed in PBS with 10% FCS and 0.5% saponin (Sigma). Stained cells were analyzed using an LSRII flow cytometer (BD).

[4] = test system: H9 hESCs, H1 hESCs and 38-2 iPSCs; experiment: Hepatic specification from other hPSC lines, flow cytometry; type: cell-based, human
From the text: To determine whether the approach detailed above is broadly applicable to different human pluripotent stem cell lines the protocol was used to differentiate the hESC lines H9 and H1 as well as an induced pluripotent cell (iPSC) line 38-2 to a hepatic fate. Day six EBs from all three lines contained high proportions of CKIT^+CXCR4^+ and CKIT^EPCAM* cells following the Wnt3a/activin induction step (FIG. 7a). Although the proportion of EPCAIVT cells was high in all EBs, the H9-derived cells expressed substantially higher levels of EPCAM than cells generated from the other lines. The levels of EPCAM expression correlated with the degree of endoderm induction, as greater than 95% of the H9-derived population expressed SOX17^+ and FOXA2^+ whereas only 65-70% of the iPSC-derived cells expressed these transcription factors (FIG. 7a). These findings indicate that surface marker analysis alone is not sufficient to monitor endoderm development and that quantitative analyses of SOX17 and FOXA2 expression is required to measure induction of this germ layer. As observed with the HES2 cells, extended activin/nodal signaling improved hepatic development of the CKIT^+CXCR4^+ population from each line (FIG. 7b). However, the duration of activin treatment necessary to generate significant levels of ALB expression varied between cell lines. Whereas higher levels of ALB expression were achieved following two days of activin treatment with H9-derived cells, both H1 and 38-2 cells required four days of additional activin signaling. With this treatment, it was possible to generate cultures consisting of 90%, 85% and 70% ALB^+ cells from the H9, H1 and 38-2 cell lines, respectively (FIG. 7c).
as §1
Flow cytometric analyses were performed as described previously^45. For cell surface markers, staining was carried out in PBS with 10% FCS. For intracellular proteins, staining was performed on cells fixed with 4% paraformaldehyde (Electron Microscopy Science, Hatfield, PA, USA) in PBS. […] Stained cells were analyzed using an LSRII flow cytometer (BD).

hPSCs = experiment: Definitive endoderm induction with CHIR99021 replacing Wnt3a, flow cytometry; type: cell-based, human; conditions: in combination with activin
Procedure: CHIR99021 is a selective inhibitor of GSK3 that has been reported to mimic the canonical Wnt signal pathway. CHIR99021 was tested as a replacement of wnt3a (e.g. added in combination with activin) in inducing Embryoid bodies and monolayer induction for definitive endoderm cells from hPSCs. […] At day 0, the cells were cultured in a RPMI based medium supplemented with glutamine (2 mM), MTG (4.5×10^−4 M: Sigma), activin A (100 ng/ml), CHIR99021 (0.3 μM) or Wnt3a (25 ng/ml). […] The media was changed every the other day. At day 7, the definitive endoderm was specified to a hepatic fate by treatment with FGF and BMP pathway agonists, as described above.

other kinases = conditions: in vitro kinase assays; cited from earlier work
[5] = day 10/12, two days activin 50 ng/ml before specification media
[6] = monolayer from activin treated endoderm, day 26

T1 sequence (P13569 whole entry): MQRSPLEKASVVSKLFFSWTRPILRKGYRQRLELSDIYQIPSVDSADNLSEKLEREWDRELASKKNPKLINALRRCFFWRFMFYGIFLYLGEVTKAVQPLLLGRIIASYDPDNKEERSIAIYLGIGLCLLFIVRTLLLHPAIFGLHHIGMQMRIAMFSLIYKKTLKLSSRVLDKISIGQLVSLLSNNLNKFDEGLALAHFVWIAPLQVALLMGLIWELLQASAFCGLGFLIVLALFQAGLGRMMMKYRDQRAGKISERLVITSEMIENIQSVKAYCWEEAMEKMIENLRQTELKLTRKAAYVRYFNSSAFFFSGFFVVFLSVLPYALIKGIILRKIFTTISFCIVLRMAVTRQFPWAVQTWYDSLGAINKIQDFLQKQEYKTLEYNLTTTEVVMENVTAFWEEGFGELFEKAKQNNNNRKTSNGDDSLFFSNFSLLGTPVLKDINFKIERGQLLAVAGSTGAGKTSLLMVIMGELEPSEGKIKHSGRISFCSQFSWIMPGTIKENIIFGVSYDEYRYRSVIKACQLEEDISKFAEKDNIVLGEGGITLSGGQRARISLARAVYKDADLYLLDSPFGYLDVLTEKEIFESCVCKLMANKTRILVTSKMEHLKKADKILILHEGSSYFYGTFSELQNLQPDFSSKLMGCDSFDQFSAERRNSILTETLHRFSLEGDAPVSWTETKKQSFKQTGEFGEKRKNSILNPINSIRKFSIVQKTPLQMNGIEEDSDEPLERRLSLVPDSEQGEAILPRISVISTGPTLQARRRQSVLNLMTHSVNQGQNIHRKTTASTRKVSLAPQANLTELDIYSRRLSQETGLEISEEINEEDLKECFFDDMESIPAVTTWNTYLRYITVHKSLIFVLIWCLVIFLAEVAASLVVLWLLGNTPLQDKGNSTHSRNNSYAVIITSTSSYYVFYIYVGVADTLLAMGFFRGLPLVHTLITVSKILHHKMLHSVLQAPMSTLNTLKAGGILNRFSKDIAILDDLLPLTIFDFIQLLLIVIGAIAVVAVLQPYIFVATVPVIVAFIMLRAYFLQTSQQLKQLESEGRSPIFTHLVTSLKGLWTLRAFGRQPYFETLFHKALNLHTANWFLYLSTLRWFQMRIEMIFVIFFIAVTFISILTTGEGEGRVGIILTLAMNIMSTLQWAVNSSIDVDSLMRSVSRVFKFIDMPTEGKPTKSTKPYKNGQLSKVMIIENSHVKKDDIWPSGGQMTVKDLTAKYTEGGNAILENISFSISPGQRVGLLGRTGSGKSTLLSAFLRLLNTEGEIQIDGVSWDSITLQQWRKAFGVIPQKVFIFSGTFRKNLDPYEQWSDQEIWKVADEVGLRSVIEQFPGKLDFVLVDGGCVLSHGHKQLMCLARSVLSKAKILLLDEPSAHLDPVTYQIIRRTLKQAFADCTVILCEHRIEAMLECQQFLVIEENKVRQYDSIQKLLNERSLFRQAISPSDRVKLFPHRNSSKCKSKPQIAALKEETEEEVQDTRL

effect on Forskolin/IBMX induced swelling (CFTR): blocked
Molecule: O=C(O)c1ccc(/C=C2\SC(=S)N(c3cccc(C(F)(F)F)c3)C2=O)cc1 [CFTRinh-172]
cyst formation [1]: delayed

Molecule: activin: Activin A, nodal agonist
proportion co-expressing CXCR4 and CKIT or CXCR4 and EPCAM [2]: greater than 90%
proportion of FOXA2+ cells [3, 5]: 92.7+/−2.5%
proportion of SOX17+ cells [3, 5]: 73.3+/−7.5%
proportion of FOXA2+ cells ([3]; days 8/10, two days activin 50 ng/ml before specification media): 96.1+/−0.9%
proportion of CD31+ cells [3, 6]: 0.49+/−0.11%
proportion of CD90+ cells [3, 6]: 8.5+/−1.19%
proportion of EPCAM+ cells [3, 6]: 90.7+/−2.7%
ALB+ cells ([4]; 38-2, four days additional activin): 70%
ALB+ cells ([4]; H1, four days additional activin): 85%
ALB+ cells ([4]; H9, two days additional activin): 90%

Molecule: Cc1c[nH]c(-c2cnc(NCCNc3ccc(C#N)cn3)nc2-c2ccc(Cl)cc2Cl)n1 [CHIR 99021]
proportion of CKIT+CXCR4+ and CXCR4+EPCAM+ cells (hPSCs): greater than 95%
effect on other kinases (other kinases): little effect
